{"source": "patent US10220040B2", "about": "“Compounds, compositions and methods useful for cholesterol mobilization” (Cerenis Therapeutics Holding SA, priority 2010, dated 2019)", "format_in_all_cases": "in vivo", "key": {"apoE−/− mice": {"test_system": "apoE−/− mice", "experiment": "ApoE−/− high-cholesterol diet model (aorta plaque progression)", "settings": "8 weeks diet then 4 weeks 100 μg/kg/day", "protocol": "FIG. 19A-L: Effect of P2Y13 agonist on atherosclerotic plaque progression in aortas of apoE^−/− mice. ApoE^−/− mice (n=20) were placed on a Western diet for 8 weeks followed by a 4 weeks oral gavage of vehicle or 100 μg/kg of Compound IIa. Aortas (n=10) were lipid extracted in 2:1 chloroform/methanol. FIG. 19A: the concentrations in total cholesterol were measured by HPLC and GC/MS and compared to parallel apoE−/− mice (n=10) on normal Chow diet as a baseline. FIG. 19B: quantification of the intima/media ratio (n=10). FIG. 19C: F4/80 antibody staining quantification (n=10). FIG. 19D: Oil Red O positive staining quantification (n=10). FIG. 19E: quantification of Sirius Red staining (n=10). FIG. 19F: anti-VCAM1 antibody staining quantification (n=10). The quantifications were expressed as the percentage of staining as compared to the sum of the intima and media area. *p<0.05. FIG. 19G to FIG. 19L: typical example of staining of aorta slides used for the quantifications. FIG. 19G and FIG. 19J: hematoxylin eosin staining of transversal sections of apoE^−/− mice aortas. FIG. 19H and FIG. 19K: Oil Red O staining of transversal sections of apoE^−/− mice aortas. FIG. 19I and FIG. 19L: VCAM1 antibody staining of transversal sections of apoE^−/− mice aortas.\nMice were placed for two month on Western diet (0.2% cholesterol, 21% butter milk) then dosed with Compound IIa once a day at 100 μg/kg (0.5% CMC, 0.2% Tween80) for 4 more weeks. The mice were sacrificed and the aortas were collected for biochemical and immunohistological characterizations. One set of aorta (n=10) was detached at the base of the heart and placed in a glass tube with 3 ml of chloroform-methanol 2:1 (v/v), and stigmasterol as the internal standard. Then analyzed as described above. Another set of aortas (n=10) were first extensively washed with PBS, then with 4% paraformaldehyde (500 μl) and finally with tissue tek OCT (500 μl). Next the aorta was embedded in OCT and frozen at −20° C. Three step frozen sections of 10 μm separated one from the other were processed and stained with Oil red O (ORO), Sirius red and hematoxylin/eosin. Macrophages were detected using F4/80 primary rat monoclonal antibody (Abcam) and VCAM was detected using rat anti mouse CD106 (AbDSerotec).\nThe prevention of progression of the plaque in aorta was further evaluated in the cholesterol diet-fed apoE−/− mice (FIG. 19). […] The collagen content of the wall was improved (FIG. 19E)."}, "mice": {"test_system": "mice", "experiment": "Bile acids physiology after one week daily oral treatment", "settings": "oral gavage once daily for a week (0.03 mg/kg)", "protocol": "FIG. 13A-B: Single-dose effect of Compound IIa on bile acids secretion after one week treatment. Mice were treated daily with Compound IIa (0.03 mg/kg) by oral gavage. On the day of sacrifice, the mice were fasted for 3 hours followed by an oral gavage (same concentration). 4 hours later the bile content was analyzed. FIG. 13A: data are expressed as the concentration of bile acids. FIG. 13B: data are expressed as the pool of bile acids per mouse weight (*p<0.05). Group of animals n=10.\nIn the previous experiments, illustrative compounds of the invention were administrated once and the impact on bile physiology was measured after 6 hours. Compound IIa was administrated by oral gavage once daily for a week to allow observation of the consequences on bile physiology of a longer treatment. On the day of sacrifice, the conditions were similar to the dose response experiments. The net impact of Compound IIa on the bile secretion was observed."}, "C57Bl6 mice": {"test_system": "C57Bl6 mice", "experiment": "Dose response on bile physiology after single oral gavage in mice", "protocol": "FIG. 16A-J: Increase of bile secretion following activation of P2Y13r pathway in mice. C57Bl/6J mice (n=10) were fasted for 2 h and then intravenously injected with Cangrelor® or Compound IIa (10 nmoles/kg). Four hours later the gallbladders were removed and analyzed for: Bile acids content (FIG. 16A); Bile cholesterol content (FIG. 16B). C57Bl/6J mice (n=10) were fasted for 2 h followed by single oral dose of P2Y13r agonist Compound IIa at 3, 30 or 300 μg/kg. Six hours later bile acids contents (FIG. 16C); bile cholesterol content (FIG. 16D), and bile acid content of liver (FIG. 16E) were evaluated using HPLC and enzymatic kits for gallbladers. Plasma samples were collected at time 0 and after 6 h of treatment, then analyzed for: total cholesterol (▴), unesterified cholesterol (●), esterified cholesterol (▪) and HDL cholesterol (▾) determined using either enzymatic kits or Lipoprint® for HDL cholesterol (FIG. 16F). C57Bl/6J mice (n=5) were intravenously injected with [^3H]-cholesterol-labelled mouse HDL (FIG. 16G), [^3H]-cholesteryl oleate-labelled mouse HDL (FIG. 16H) or [^3H]-cholesterol-labelled mouse LDL (FIG. 16I), and with Cangrelor® or Compound IIa (10 nmoles/kg). Radioactivity present in the liver was determined 2 hours later for the HDL or 5 hours later for the LDL. Cholesterol content of feces from treated animals (100 μg/kg) was determined by Charge aerosol detection (FIG. 16J). *p<0.05, **p<0.01.\nThe dose response after oral gavage was determined for illustrative compounds of the invention. The chosen doses were 0.003, 0.03 and 0.3 mg/kg. The selected compounds of the invention were administrated by oral gavage and 6 hours later the mice are sacrificed and the bile content was analyzed (FIGS. 6-11).\nBile acids were diluted in PBS (1:5000) and the concentration was measured according to the manufacturer protocol with slight modifications. Concentrations of bile acids in the standard curve were varied from […] and the enzymatic reaction was performed for 20 minutes. 4 μl of 1:5000 bile dilution was used for concentration determination.\nBile phospholipids were measured according to the manufacturer protocol. Briefly, the standards were varied from 0 to 20 μg/ml and 4 μl of bile was measured in the assay. The reaction was performed for 5 minutes at 37° C.\nBile phospholipids were measured according to the manufacturer protocol. Briefly, the standards were varied from 0 to 60 μg/ml and 10 μl of bile (dilution 1:10) was measured in the assay. The reaction was performed for 5 minutes at 37° C."}}, "data": [{"compound": "CN(C)c1ncc(CN2CCC(c3cc(O)nc(N4CCOCC4)n3)CC2)cn1", "note": "[Compound IIa, 6-[1-(2-Dimethylaminopyrimidin-5-ylmethyl)-piperidin-4-yl]-2-morpholin-4-yl-pyrimidin-4-ol]", "values": [{"measurement": "VCAM1 expression (antibody CD106)", "setting": "apoE−/− mice", "value": "significant decreases"}, {"measurement": "cholesterol content of aorta", "setting": "apoE−/− mice", "value": "significant decreases"}, {"measurement": "collagen content of the wall", "setting": "apoE−/− mice", "value": "improved"}, {"measurement": "lipid staining of aorta", "setting": "apoE−/− mice", "value": "decrease"}, {"measurement": "macrophage content (F4/80 antibody) of the aortic wall and the plaque", "setting": "apoE−/− mice", "value": "decreased"}, {"measurement": "plaque area in aorta", "setting": "apoE−/− mice", "value": "significant decreases"}, {"measurement": "volume of the individual bile compared to vehicle treatment", "setting": "mice", "value": "significant increase"}, {"measurement": "plasma cholesterol and HDL", "setting": "C57Bl6 mice; after 4 h of treatment, exception: unesterified cholesterol", "value": "not significantly affected"}, {"measurement": "dose at which an effect on bile acids, bile cholesterol and bile phospholipids was shown", "setting": "C57Bl6 mice; oral gavage 0.003, 0.03 and 0.3 mg/kg, bile analyzed 6 hours later", "value": 3, "unit": "µg/kg"}, {"measurement": "bile acid and cholesterol secretion in the bile", "setting": "C57Bl6 mice; oral gavage, doses as low as 30 μg/kg", "value": "stimulation"}, {"measurement": "liver bile acid content", "setting": "C57Bl6 mice; oral, 30 μg/kg", "value": "increase"}]}]}
